# Where “and” joins values, the source holds several entries; their conditions need not be identical. Equal values may be shown once. Read-outs that look alike come from different tables or passages of the source.
# Tested on: S. pneumoniae T14 capsule polysaccharide
# Format: cell-based, Streptococcus pneumoniae serotype 14
# Method: FIGS. 1A-1D. Screen for azido sugar incorporation into S. pneumoniae T14 capsule polysaccharide. […] Bacteria were grown until the ΔOD600≥0 for >30 minutes, then lysed with 0.1% NLS for 30 minutes. Growth was measured offline using a spectrophotometer blanked with PBS at 600 nm. (FIG. 1A) azido incorporation into polysaccharide was then quantified via fluorescent labeling (FL) with normalization to refractive index (RI). MaxOD and End Of Fermentation time (EOF) are provided in (FIG. 1B) and (FIG. 1C), respectively. Polysaccharide was extracted using EtOH and CaCl2 and analyzed via SEC-RI for (FIG. 1D) polysaccharide titer. n=1-4, error bars=+/−StDev.
# A SEC fluorescence and Refractive index assay (SEC-FL/RI) was used for azide measurement to confirm the incorporation of azide modification.
# Click-It Cell Reaction Buffer kit and Alexa Fluor 488 Alkyne were purchased from Invitrogen.
# The initial procedure when running the SEC-FL/RI was to prepare the sample to a target concentration of 0.01 mg/m by mixing a pre-diluted polysaccharide to the final target concentration with the Click Reaction mixture. The reaction mixture consisted of 2.67 mM CuSO4, 2.67 mg/mL cell additive reagent, and 20 uM Alexa Fluor Alkyne. This was mixed with the sample at a 3:1 ratio of reaction mixture to sample and incubated in the absence of light. Reactions were transferred to HPLC vials and ran on the SEC-FL/RI HPLC setup. The RI detector (RID) allowed for detection of the polysaccharide while the Fluorescence Detector (FLD) was used to determine the level of fluor incorporated into the polysaccharide sample. The ratio of the two peak areas gave a measurement for the amount of azide incorporated to the polysaccharide.
# Later, in addition to the incubation of the sample for thirty minutes, a buffer exchange step was added that washed out the unreacted fluor as well as the reaction matrix reagents in order to improve the baselines of the FLD and RID during the HPLC run. This added greater resolution of the peak associated with the azide functionalized polysaccharide. The assay was useful for relative quantitation of azide incorporation into the polysaccharide but could not quantify an exact numerical concentration. To improve this aspect work was undertaken to use a polysaccharide with known levels of azido functionalization to make a standard curve that varied the % Azido while keeping the polysaccharide mass the same. This was done by mixing the known azido modified poly (polysaccharide) with specific amounts of native (unmodified) polysaccharide. A strong linear fit for the generated standard curve was seen.
# The values for percent azide were able to be converted to a μM azide per mM polysaccharide by converting from % azide using the constant polysaccharide concentration.
smiles,measurement,setting,value
"[N-]=[N+]=N[C@@H](C=O)[C@@H](O)[C@H](O)[C@H](O)CO [2AzGlc, 2-Azido-2-deoxy-D-glucose]",increase between lowest and higher FL/RI achieved,"2AzGlc titration 1-60 mM, production media + Glucose (dextrose, 30 g/L)",10 fold
same,FL/RI,"azido feed DOE: Gal 30 g/L, initial 2AzGlc 0 mM, 2AzGlc feed stock 4 mM, pH 7.33, 300 rpm",101.45 and 103.61
same,FL/RI,"azido feed DOE: Gal 30 g/L, initial 2AzGlc 0 mM, 2AzGlc feed stock 6.5 mM, pH 7.33, 300 rpm",113.82 and 121.9
same,FL/RI,"azido feed DOE: Gal 30 g/L, initial 2AzGlc 0.1 mM, 2AzGlc feed stock 4 mM, pH 7.33, 300 rpm",116.16 and 116.31
same,FL/RI,"azido feed DOE: Gal 30 g/L, initial 2AzGlc 0.1 mM, 2AzGlc feed stock 6.5 mM, pH 7.33, 300 rpm",84.53 and 83.69
same,FL/RI,"azido feed DOE: Gal 40 g/L, initial 2AzGlc 0 mM, 2AzGlc feed stock 4 mM, pH 7.33, 300 rpm",97.04 and 114.22
same,FL/RI,"azido feed DOE: Gal 40 g/L, initial 2AzGlc 0 mM, 2AzGlc feed stock 6.5 mM, pH 7.33, 300 rpm",122.7 and 110.09
same,FL/RI,"azido feed DOE: Gal 40 g/L, initial 2AzGlc 0.1 mM, 2AzGlc feed stock 4 mM, pH 7.33, 300 rpm",125.02 and 122.41
same,FL/RI,"azido feed DOE: Gal 40 g/L, initial 2AzGlc 0.1 mM, 2AzGlc feed stock 6.5 mM, pH 7.33, 300 rpm",79.3 and 63.19
same,FL/RI,"fed-batch, initial galactose 5.0 g/L, 0.25 mM 2AzGlc, galactose feed rate FR #1",45
same,FL/RI,"fed-batch, initial galactose 5.0 g/L, 0.25 mM 2AzGlc, galactose feed rate FR #2",18
same,average FL/RI,"initial galactose 40 g/L, initial 2AzGlc 0.1 mM, 4.0 mM 2AzGlc feed stock",123.7
same,FL/RI,"production media + 2AzGlc (10 mM), pH 6.33, agitation 100 rpm",91.9 and 100.7
same,FL/RI,"production media + 2AzGlc (10 mM), pH 6.33, agitation 300 rpm",98.3 and 97.5
same,FL/RI,"production media + 2AzGlc (10 mM), pH 6.66, agitation 200 rpm",114.5 and 135.0
same,FL/RI,"production media + 2AzGlc (10 mM), pH 7, agitation 100 rpm",117.8 and 118.8
same,FL/RI,"production media + 2AzGlc (10 mM), pH 7, agitation 300 rpm",115.7 and 107.5
same,FL/RI,"production media + 2AzGlc (10 mM), pH 7.33, agitation 100 rpm",137.4 and 158.3
same,FL/RI,"production media + 2AzGlc (10 mM), pH 7.33, agitation 200 rpm",140.8 and 125.0
same,FL/RI,"production media + 2AzGlc (10 mM), pH 7.33, agitation 300 rpm",113.9 and 137.3
same,FL/RI,"production media + Glucose (dextrose, 30 g/L), media pH 7, 2AzGlc 1 mM",15
same,FL/RI,"production media + Glucose (dextrose, 30 g/L), media pH 7, 2AzGlc 5 mM",61
same,FL/RI,"production media + Glucose (dextrose, 30 g/L), media pH 7, 2AzGlc 10 mM",118
same,FL/RI,"production media + Glucose (dextrose, 30 g/L), media pH 7, 2AzGlc 20 mM",146
same,FL/RI,"production media + Glucose (dextrose, 30 g/L), media pH 7.33, 2AzGlc 20 mM",148
same,FL/RI,"production media + Glucose (dextrose, 30 g/L), media pH 7.33, 2AzGlc 40 mM",157
same,FL/RI,"production media + Glucose (dextrose, 30 g/L), media pH 7.33, 2AzGlc 60 mM",151
same,FL/RI,"production medium + Galactose (30 g/L) + 2AzGlc (0.25 mM), pH 6.33, agitation 100 rpm",51.73 and 50.26
same,FL/RI,"production medium + Galactose (30 g/L) + 2AzGlc (0.25 mM), pH 6.33, agitation 200 rpm",48.41
same,FL/RI,"production medium + Galactose (30 g/L) + 2AzGlc (0.25 mM), pH 6.33, agitation 300 rpm",45.24 and 44.39
same,FL/RI,"production medium + Galactose (30 g/L) + 2AzGlc (0.25 mM), pH 6.66, agitation 100 rpm",78.29
same,FL/RI,"production medium + Galactose (30 g/L) + 2AzGlc (0.25 mM), pH 6.66, agitation 300 rpm",77.94
same,FL/RI,"production medium + Galactose (30 g/L) + 2AzGlc (0.25 mM), pH 7, agitation 200 rpm",97.25
same,FL/RI,"production medium + Galactose (30 g/L) + 2AzGlc (0.25 mM), pH 7.33, agitation 100 rpm",101.26 and 88.76
same,FL/RI,"production medium + Galactose (30 g/L) + 2AzGlc (0.25 mM), pH 7.33, agitation 300 rpm",110 and 109.76 and 110.12
same,FL/RI,"screen, azido sugar 1 mM, production medium + Glucose (dextrose, 30 g/L)",detectable

# Reference: patent US20250163484A1, “Methods for Incorporating Azido Groups in Bacterial Capsular Polysaccharides” (PFIZER INC., priority 2022, published 2025)
